Measured values: patent publication US8642656B2, “Calixarene-based peptide conformation mimetics, methods of use, and methods of making” (priority 2004, dated 2014)
Read-outs that look alike come from different tables or passages of the source.

Assays:
Experiment in all cases: LPS neutralization assay (Limulus amoebocyte lysate, QCL-1000)
LPS from S. typhimurium = format: biochemical, Salmonella typhimurium; details: read-out: IC50 values (μM) for LPS binding, Salmonella
Description: (§1) The ability of compounds to neutralize endotoxin was detected in vitro by using the chromogenic QCL-1000 kit from BioWhittaker, Inc. (Walkersville, Md.), and as described in their protocol. This Limulus amoebocyte lysate (LAL) assay is quantitative for Gram negative bacterial endotoxin (lipopolysaccharide, LPS). In this assay compounds that are active inhibit the LPS-mediated activation of a proenzyme whose active form would release p-nitroaniline (pNA) from a colorless synthetic substrate producing a yellow color (pNA) whose absorption is monitored spectrophotometrically at 405-410 nm. The initial rate of enzyme activation is proportional to the concentration of endotoxin present.
(§2) Variants of LPS from six Gram negative bacteria were used: E. coli serotypes 0111:B4 (Combrex, Walkersville, Md.) and 055:B5 (Sigma, St. Louis, Mo.); Klebsiella pneumoniae (List Biologies, San Jose, Calif.); Pseudomonas aeruginosa (List Biologies, San Jose, Calif.); Salmonella typhimurium (List Biologies, San Jose, Calif.), and Serratia marcascens (List Biologies, San Jose, Calif.). The concentration of compound required to neutralize a given LPS and therefore to inhibit the Limulus amoebocyte lysate driven by 0.04 units of any given LPS was determined by dose response curves fit by using a standard sigmoidal function to determined the JC50 value for each lopomimetic compound. The 0.04 units corresponds to 0.01 ng LPS from E. coli serotype 055:B5, 0.01 ng LPS from E. coli serotype 0111:B4, 0.003 ng LPS from K. pneumoniae, 0.01 ng LPS from P. aeruginosa, 0.03 ng LPS from S. typhimurium, and 0.03 ng LPS from S. marcascens.

[1] = test system: LPS from E. coli serotype 0111:B4; format: biochemical; details: read-out: IC50 values (μM) for LPS binding, E. coli 0111:B4
Description: as §1, §2

[2] = test system: LPS from E. coli serotype 055:B5; format: biochemical
Description: as §1, §2

LPS from S. marcascens = format: biochemical, Serratia marcascens; details: read-out: IC50 values (μM) for LPS binding, Serratia
Description: as §1, §2

LPS from K. pneumoniae = format: biochemical, Klebsiella pneumoniae; details: read-out: IC50 values (μM) for LPS binding, Klebsiella
Description: as §1, §2

LPS from P. aeruginosa = format: biochemical, Pseudomonas aeruginosa; details: read-out: IC50 values (μM) for LPS binding, P.a.
Description: as §1, §2

[3] = Table 3, errors estimated ±30%, read-out: IC50 values (μM) for LPS binding, E. coli 055:B5
[4] = Table 2, read-out: IC50 values (μM) for LPS binding, E. coli 055:B4

Compound | IC50 (LPS from S. typhimurium; Table 3, errors estimated ±30%) [µM] | IC50 ([1]; Table 3, errors estimated ±30%) [µM] | IC50 [2, 3] [µM] | IC50 (LPS from S. marcascens; Table 3, errors estimated ±30%) [µM] | IC50 (LPS from K. pneumoniae; Table 3, errors estimated ±30%) [µM] | IC50 (LPS from P. aeruginosa; Table 3, errors estimated ±30%) [µM] | IC50 (LPS from S. typhimurium; Table 2) [µM] | IC50 ([1]; Table 2) [µM] | IC50 [2, 4] [µM] | IC50 (LPS from S. marcascens; Table 2) [µM] | IC50 (LPS from K. pneumoniae; Table 2) [µM] | IC50 (LPS from P. aeruginosa; Table 2) [µM]
5,11,17,23-Tetra-tert-butyl-25-(2-aminoethoxy)-27-(2-guanidinoethoxy)-26,28-dihydroxy Calix[4]arene trifluoroacetic acid salt [Compound 28] | 2.6 | > 5 | 4.1 | > 5 | > 5 | > 5 |  |  |  |  |  | 
5,17-Di-(2-methallyl)-11,23-diallyl-25,26,27,28-tetrakis-N—(N,N-dimethyl-2-aminoethyl) carbamoylmethoxy calix[4]arene [Compound 41] | > 5 | 4.7 | 3.6 | > 5 | > 5 | > 5 |  |  |  |  |  | 
5,17-Di-(2-methylpropyl)-11,23-dipropyl-25,26,27,28-tetrakis-N—(N,N-dimethyl-2-aminoethyl)carbamoylmethoxy calix[4]arene [Compound 17] | 3.1 | 3.7 | 3.8 | > 5 | 2.1 | > 5 |  |  |  |  |  | 
5,17-Di-(hydroxycabonyl)ethyl-25,27-di-(3-methylbutoxy)-26,28-dihydroxycalix[4]arene [Compound 47] | > 5 | > 5 | > 5 | > 5 | > 5 | > 5 | > 5 | > 5 | > 5 | > 5 | > 5 | > 5
25,27-Bis(2-guanidinoethoxy)-26,28-dihydroxy calix[4]arene trifluoroacetic acid salt [Compound 36] | > 5 | 3.9 | 4.1 | > 5 | > 5 | > 5 |  |  |  |  |  | 
25,27-Bis[N-(2-aminoethyl)carbamoylmethoxy]-26,28-dihydroxy calix[4]arene [Compound 39] | > 5 | > 5 | > 5 | > 5 | > 5 | > 5 | 0.6 | 1.6 | 0.9 | 1.5 | 0.3 | 0.8
25,27-Bis[N—(N,N-dimethyl-2-aminoethyl)carbamoylmethoxy]-26,28-dihydroxy calix[4]arene [Compound 38] | > 5 | > 5 | > 5 | > 5 | > 5 | > 5 |  |  |  |  |  | 
CC(C)(C)c1cc2c(OCC(=O)NCCN)c(c1)Cc1cc(C(C)(C)C)cc(c1OCC(=O)NCCN)Cc1cc(C(C)(C)C)cc(c1OCC(=O)NCCN)Cc1cc(C(C)(C)C)cc(c1OCC(=O)NCCN)C2 [Compound 4] | 0.6 | 1.6 | 0.9 | 1.5 | 0.3 | 0.8 | 0.8 | 2.7 | 0.05 | > 5 | 0.4 | > 5
CCCc1cc2c(OCC(=O)NCCN(C)C)c(c1)Cc1cc(CCC)cc(c1OCC(=O)NCCN(C)C)Cc1cc(CCC)cc(c1OCC(=O)NCCN(C)C)Cc1cc(CCC)cc(c1OCC(=O)NCCN(C)C)C2 [Compound 11b] | 0.8 | 2.7 | 0.05 | > 5 | 0.4 | > 5 |  |  |  |  |  | 
NCCNC(=O)COc1c2cccc1Cc1cccc(c1O)Cc1cccc(c1OCC(=O)NCCN)Cc1cccc(c1O)C2 [Compound 20] |  |  |  |  |  |  | 1.2 | > 5 | > 5 | > 5 | > 5 | > 5
CC(C)CCOc1c2cccc1Cc1cc(CCCP(=O)(O)O)cc(c1O)Cc1cccc(c1OCCC(C)C)Cc1cc(CCCP(=O)(O)O)cc(c1O)C2 [Compound 48] | > 5 | > 5 | > 5 | > 5 | > 5 | > 5 | > 5 | > 5 | > 5 | > 5 | > 5 | > 5
